Test results from patent US5389644A, “1,4-dihydropyridine compounds” (priority 1992, dated 1995).

How the values were obtained:
calcium channel = biological target: T1, calcium channel (Sus scrofa, UniProt A0A8W4FNC0); assay: Affinity for the calcium channel labelled with [^3 ] PN 200110, aorta smooth muscle microsome preparations; type: binding; conditions: pig aorta smooth muscle microsomes; means of three independent experiments
T1 construct: pig aorta smooth muscle microsome preparations; from tissue; host or cells: pig aorta smooth muscle microsomes
T1 sequence (A0A8W4FNC0 1-2067): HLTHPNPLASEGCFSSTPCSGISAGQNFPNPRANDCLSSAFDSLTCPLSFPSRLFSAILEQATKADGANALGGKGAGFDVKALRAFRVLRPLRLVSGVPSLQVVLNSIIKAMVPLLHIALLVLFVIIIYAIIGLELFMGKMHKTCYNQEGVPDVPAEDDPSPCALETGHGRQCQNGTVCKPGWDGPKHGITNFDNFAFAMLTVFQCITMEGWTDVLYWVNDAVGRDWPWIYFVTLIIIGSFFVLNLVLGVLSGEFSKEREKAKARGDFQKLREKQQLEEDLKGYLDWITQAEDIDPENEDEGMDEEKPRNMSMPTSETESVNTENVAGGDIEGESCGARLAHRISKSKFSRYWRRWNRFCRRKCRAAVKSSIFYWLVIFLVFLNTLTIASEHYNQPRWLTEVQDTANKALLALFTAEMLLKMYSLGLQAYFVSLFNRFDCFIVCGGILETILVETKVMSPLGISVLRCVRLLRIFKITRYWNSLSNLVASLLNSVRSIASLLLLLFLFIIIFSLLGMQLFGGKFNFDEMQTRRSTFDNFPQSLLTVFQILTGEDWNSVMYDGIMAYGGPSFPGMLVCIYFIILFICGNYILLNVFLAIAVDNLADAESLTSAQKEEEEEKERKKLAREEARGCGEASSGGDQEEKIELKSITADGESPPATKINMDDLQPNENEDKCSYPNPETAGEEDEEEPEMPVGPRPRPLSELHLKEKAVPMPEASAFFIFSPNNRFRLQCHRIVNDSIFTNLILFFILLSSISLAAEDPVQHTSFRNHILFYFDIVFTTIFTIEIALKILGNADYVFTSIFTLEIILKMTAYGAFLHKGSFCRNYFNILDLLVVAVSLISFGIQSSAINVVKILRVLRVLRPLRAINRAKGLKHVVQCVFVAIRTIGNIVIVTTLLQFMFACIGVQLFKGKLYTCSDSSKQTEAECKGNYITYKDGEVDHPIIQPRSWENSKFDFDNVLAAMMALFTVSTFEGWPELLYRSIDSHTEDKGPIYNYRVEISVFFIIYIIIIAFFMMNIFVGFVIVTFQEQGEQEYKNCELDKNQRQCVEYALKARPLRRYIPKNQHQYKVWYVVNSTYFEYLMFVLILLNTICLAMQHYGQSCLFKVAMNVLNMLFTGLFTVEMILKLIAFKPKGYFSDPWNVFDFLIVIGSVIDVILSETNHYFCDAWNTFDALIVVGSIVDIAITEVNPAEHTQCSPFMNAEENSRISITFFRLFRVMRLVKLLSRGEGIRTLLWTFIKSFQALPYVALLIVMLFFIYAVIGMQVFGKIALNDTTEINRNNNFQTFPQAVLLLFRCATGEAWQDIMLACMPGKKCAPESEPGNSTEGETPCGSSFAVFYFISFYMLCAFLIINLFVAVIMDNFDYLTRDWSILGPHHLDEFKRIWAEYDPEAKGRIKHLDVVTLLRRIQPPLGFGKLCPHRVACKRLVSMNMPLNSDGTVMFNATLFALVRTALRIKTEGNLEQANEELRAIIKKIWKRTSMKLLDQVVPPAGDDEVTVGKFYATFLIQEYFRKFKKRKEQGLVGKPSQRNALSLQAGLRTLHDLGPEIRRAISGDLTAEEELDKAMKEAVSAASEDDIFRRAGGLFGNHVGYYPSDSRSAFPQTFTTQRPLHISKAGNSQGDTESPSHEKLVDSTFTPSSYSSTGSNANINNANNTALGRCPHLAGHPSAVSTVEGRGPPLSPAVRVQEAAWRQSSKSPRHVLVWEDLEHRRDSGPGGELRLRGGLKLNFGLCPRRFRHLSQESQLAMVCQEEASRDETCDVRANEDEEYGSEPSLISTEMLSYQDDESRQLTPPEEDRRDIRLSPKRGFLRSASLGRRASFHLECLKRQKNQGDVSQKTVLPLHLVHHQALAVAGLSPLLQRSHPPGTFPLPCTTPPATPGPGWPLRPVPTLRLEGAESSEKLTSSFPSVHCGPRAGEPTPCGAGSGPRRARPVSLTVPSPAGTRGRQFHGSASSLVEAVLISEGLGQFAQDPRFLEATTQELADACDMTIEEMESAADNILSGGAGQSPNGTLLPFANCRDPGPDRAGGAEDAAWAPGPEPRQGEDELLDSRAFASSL
From the text: The results are expressed as IC50 (M) and represent means of three independent experiments.

DC-3F/AD = assay: Cytotoxicity: reversal of resistance to actinomycin D (reversion factor), line DC-3F/AD; type: cell-based, Chinese hamster
Protocol: (§1) The parameter measured is the cytotoxicity of the antitumour drug, quantified in the absence and in the presence of the reversing compound. Two resistant cell lines were used: 1 Chinese hamster lung line, DC-3F/AD, the resistance of which was induced by actinomycin D. […] The compounds tested for their capacity to reverse the resistance are added at the same time as the cytotoxic agent. The cells are then incubated for 4 days.

KB-A1 [1] = assay: Cytotoxicity: reversal of resistance to adriamycin (reversion factor), line KB-A1; type: cell-based, Human
Protocol: as §1, with “compound.” for “compound. Two resistant cell lines were used: 1 Chinese hamster lung line, DC-3F/AD, the resistance of which was induced by actinomycin D.”

P 388/VCR = assay: In vivo increase in antitumour activity of vincristine, resistant line P 388/VCR; parameters: species or system murine leukaemia in female B6D2F1 mice
From the text: This study was completed by an in vivo study, using a murine leukaemia resistant to vincristine (P 388/VCR) and using the compounds of the present invention in association with vincristine.
(§2) The sensitive parent line P 388 (murine leukaemia) and the sub-line resistant to vincristine, P 388/VCR, were supplied by NCI (Frederick, USA). The tumour cells (10^6 cells) were inoculated on day 0 into the indraperitoneal cavity of female B6D2F1 mice (Iffa Credo, France) weighing from 18 to 20 g (groups of 8 to 10 animals).
Every day for 4 days, starting from day 1, the animals received:
an administration of 25 to 150 mg/kg by i.p., p.o. or i.v. route of the compound of the present invention to be tested, as mentioned in the table 4a; then
(§3) 30 to 60 minutes later, an administration by the i.p. route of 0.25 mg/kg of vincristine (used as a reference antitumour agent).
(§4) The antitumour activity is expressed as follows: [formula]
(§5) The values are mean values obtained in independent experiments (# sem when n is greater than or equal to 3).

KB-A1 [2] = assay: Flow cytometry: intracellular accumulation of ADR, line KB-A1; type: cell-based, Human; conditions: ADR 50 μM, 5 hours
Protocol: Also measured was the effect of the compounds on the intracellular concentration of adriamycin. […] By measuring that fluorescence, it is thus possible to obtain a relative measurement of the intracellular concentration of ADR. […] The cells (5×10^5 per ml) were exposed simultaneously to ADR at a fixed concentration (50 μM) and to the tested compounds at various concentrations. After 5 hours' incubation, the intracellular accumulation of ADR was evaluated by FCM. […] The results were presented in the form of linear histograms of the intracellular ADR fluorescence. Expression of the results: for each of the histograms the mean fluorescence per channel (MEAN) was determined by the computer of the apparatus. For all experiments: a negative control (cells without ADR) fixed the autofluorescence threshold. a positive control (cells with ADR) determined the MEAN value=MN1. the "test" tubes (cells with ADR and with compound) were used to determine, for each of the compounds and at each of the concentrations, the MEAN values=MN2. The results are expressed in the form of variations from the mean fluorescence obtained for each of the "test" tubes (MN2) in relation to the mean fluorescence obtained with the positive control (MN1): VAR-MEAN=MN2-MN1. The measured parameter is thus the increase in ADR fluorescence in the presence of the tested compounds.

P 388 = assay: In vivo increase in antitumour activity of vincristine, sensitive line P388; parameters: species or system murine leukaemia in female B6D2F1 mice
Protocol: as §2
Every day for 4 days, starting from day 1, the animals received: […]
as §3, §4, §5
Using the sensitive line (P388) the tested compounds of the invention increase considerably the sensitivity of the cells to vincristine.

[3] = with VCR […] i.p., compound 50 mg/kg i.p.
[4] = with VCR […] i.p., compound 150 mg/kg p.o.
[5] = VCR 0, compound 12.5 mg/kg p.o.
[6] = with VCR […] i.p., compound 12.5 mg/kg p.o.

Molecule `CCOC(=O)C1=C(COCCOCCNCCc2ccccn2)NC(C)=C(C(=O)OC)C1c1cccc(Cl)c1Cl` (single isomer, unassigned) [Example 20, d-2-{2-[[2-(2-(N-pyrid-2-yl)ethylamino)ethoxy]ethoxy]methyl}-4-(2,3-dichlorophenyl)-3-ethoxycarbonyl-5-methoxycarbonyl-6-methyl-1,4-dihydropyridine] has an IC50 (calcium channel) of 2100 nM.

`CCOC(=O)C1=C(COCCOCCNCc2cccc([N+](=O)[O-])c2)NC(C)=C(C(=O)OC)C1c1cccc(Cl)c1Cl` (stereo not drawn) [Example 2, d-2-{[2-(2-(N-m-nitrobenzylamino)ethoxy)ethoxy]methyl}-4-(2,3-dichlorophenyl)-3-ethoxycarbonyl-5-methoxycarbonyl-6-methyl-1,4-dihydropyridine] was tested, and the “reversion factor (RF)” value (DC-3F/AD; compound 1 μM) was 1.5, the “reversion factor (RF)” value (DC-3F/AD; compound 5 μM) was 1,478.2 and the “reversion factor (RF)” value (KB-A1 [1]; compound 1 μM) was 2.2. The “reversion factor (RF)” value (KB-A1 [1]; compound 5 μM) was 389.5.

`CCOC(=O)C1=C(COCCOCCNCc2ccc(F)cc2)NC(C)=C(C(=O)OC)C1c1cccc(Cl)c1Cl` (stereo not drawn) [Example 4, d-2-{[2-(2-(N-p-fluorobenzylamino)ethoxy)ethoxy]methyl}-4-(2,3-dichlorophenyl)-3-ethoxycarbonyl-5-methoxycarbonyl-6-methyl-1,4-dihydropyridine] was tested, and the “reversion factor (RF)” value (DC-3F/AD; compound 1 μM) was 23.0, the “reversion factor (RF)” value (DC-3F/AD; compound 5 μM) was 3,962.3 and the T/C (P 388/VCR; VCR 0, compound 50 mg/kg i.p.) was 100%. It also gave a T/C (P 388/VCR; VCR 0, compound 150 mg/kg p.o.) of 110%, a T/C (P 388/VCR; [3]) of 176% and a T/C (P 388/VCR; [4]) of 181%. For the same molecule, the “increase in the ADR fluorescence (VAR-MEAN)” value (from here on “increase”) (KB-A1 [2]; compound 1 μM) was 2.0, the “increase” value (KB-A1 [2]; compound 5 μM) was 18.6 and the “increase” value (KB-A1 [2]; compound […]) was 7.0. For the same molecule, the “reversion factor (RF)” value (KB-A1 [1]; compound 1 μM) was 26.0 and the “reversion factor (RF)” value (KB-A1 [1]; compound 5 μM) was 473.7.

With `CCOC(=O)C1=C(COCCOCCNCc2cccc(F)c2)NC(C)=C(C(=O)OC)C1c1cccc(Cl)c1Cl` (stereo not drawn) [Example 5, d-2-{[2-(2-(N-m-fluorobenzylamino)ethoxy)ethoxy]methyl}-4-(2,3-dichlorophenyl)-3-ethoxycarbonyl-5-methoxycarbonyl-6-methyl-1,4-dihydropyridine] the “reversion factor (RF)” value (DC-3F/AD; compound 1 μM) was 7.6, the “reversion factor (RF)” value (DC-3F/AD; compound 5 μM) was 3,567.0 and the “reversion factor (RF)” value (KB-A1 [1]; compound 1 μM) was 13.2. For the same molecule, the “reversion factor (RF)” value (KB-A1 [1]; compound 5 μM) was 225.8.

With `CCOC(=O)C1=C(COCCOCCNCc2ccccc2F)NC(C)=C(C(=O)OC)C1c1cccc(Cl)c1Cl` (stereo not drawn) [Example 6, d-2-{[2-(2-(N-o-fluorobenzylamino)ethoxy)ethoxy]methyl}-4-(2,3-dichlorophenyl)-3-ethoxycarbonyl-5-methoxycarbonyl-6-methyl-1,4-dihydropyridine] the “reversion factor (RF)” value (DC-3F/AD; compound 1 μM) was 9.6, the “reversion factor (RF)” value (DC-3F/AD; compound 5 μM) was 4,340.9 and the “reversion factor (RF)” value (KB-A1 [1]; compound 1 μM) was 15.2. For the same molecule, the “reversion factor (RF)” value (KB-A1 [1]; compound 5 μM) was 159.1.

With `CCOC(=O)C1=C(COCCOCCNCc2ccc(C#N)cc2)NC(C)=C(C(=O)OC)C1c1cccc(Cl)c1Cl` (stereo not drawn) [Example 8, d-2-{[2-(2-(N-p-cyanobenzylamino)ethoxy)ethoxy]methyl}-4(2,3-dichlorophenyl)-3-ethoxycarbonyl-5-methoxycarbonyl-6-methyl-1,4-dihydropyridine] the “reversion factor (RF)” value (DC-3F/AD; compound 1 μM) was 11.4, the “reversion factor (RF)” value (DC-3F/AD; compound 5 μM) was 1,319.9 and the “increase” value (KB-A1 [2]; compound 1 μM) was 2.0. For the same molecule, the “increase” value (KB-A1 [2]; compound 5 μM) was 24.2, the “increase” value (KB-A1 [2]; compound […]) was 9.4 and the “Survivors on day 60” value (P 388; VCR 0, compound 150 mg/kg p.o.) was 0/8. For the same molecule, the T/C (P 388; VCR 0, compound 150 mg/kg p.o.) was 106%, the “Survivors on day 60” value (P 388; [4]) was 2/8 and the T/C (P 388; [4]) was 294%. The “reversion factor (RF)” value (KB-A1 [1]; compound 1 μM) was 6.9 and the “reversion factor (RF)” value (KB-A1 [1]; compound 5 μM) was 136.0.

For `CCOC(=O)C1=C(COCCOCCNCc2ccc(SC)cc2)NC(C)=C(C(=O)OC)C1c1cccc(Cl)c1Cl` (stereo not drawn) [Example 9, d-2-{[2-(2-(N-p-methylthiobenzylamino)ethoxy)ethoxy]methyl}-4-(2,3-dichlorophenyl)-3-ethoxycarbonyl-5-methoxycarbonyl-6-methyl-1,4-dihydropyridine], the “reversion factor (RF)” value (DC-3F/AD; compound 1 μM) was 1.2, the “reversion factor (RF)” value (DC-3F/AD; compound 5 μM) was 560.3 and the “reversion factor (RF)” value (KB-A1 [1]; compound 1 μM) was 2.4. For the same molecule, the “reversion factor (RF)” value (KB-A1 [1]; compound 5 μM) was 99.0.

For `CCOC(=O)C1=C(COCCOCCNCc2cccc3ccccc23)NC(C)=C(C(=O)OC)C1c1cccc(Cl)c1Cl` (stereo not drawn) [Example 11, d-2-{[2-(2-(N-naphth-1-ylmethylamino)ethoxy)ethoxy]methyl}-4-(2,3-dichlorophenyl)-3-ethoxycarbonyl-5-methoxycarbonyl-6-methyl-1,4-dihydropyridine], the “reversion factor (RF)” value (DC-3F/AD; compound 1 μM) was 1.0, the “reversion factor (RF)” value (DC-3F/AD; compound 5 μM) was 2,442.4 and the T/C (P 388/VCR; VCR 0, compound 50 mg/kg i.p.) was 100%. The T/C (P 388/VCR; VCR 0, compound 150 mg/kg p.o.) was 99%, the T/C (P 388/VCR; [3]) was 146% and the T/C (P 388/VCR; [4]) was 177%. The “increase” value (KB-A1 [2]; compound 1 μM) was 0.2, the “increase” value (KB-A1 [2]; compound 5 μM) was 31.0 and the “increase” value (KB-A1 [2]; compound […]) was 18.2. The “reversion factor (RF)” value (KB-A1 [1]; compound 1 μM) was 1.7 and the “reversion factor (RF)” value (KB-A1 [1]; compound 5 μM) was 336.0.

In the case of `CCOC(=O)C1=C(COCCOCCNCc2cccs2)NC(C)=C(C(=O)OC)C1c1cccc(Cl)c1Cl` (stereo not drawn) [Example 13, d-2-{[2-(2-(N-thien-2-ylmethylamino)ethoxy)ethoxy]methyl)-4-(2,3-dichlorophenyl)-3-ethoxycarbonyl-5-methoxycarbonyl-6-methyl-1,4-dihydropyridine], the “reversion factor (RF)” value (DC-3F/AD; compound 1 μM) is reported as 19.4, the “reversion factor (RF)” value (DC-3F/AD; compound 5 μM) is reported as 4,141.7 and the “reversion factor (RF)” value (KB-A1 [1]; compound 1 μM) is reported as 12.3. The “reversion factor (RF)” value (KB-A1 [1]; compound 5 μM) was 165.1.

`CCOC(=O)C1=C(COCCOCCNCc2ccncc2)NC(C)=C(C(=O)OC)C1c1cccc(Cl)c1Cl` (stereo not drawn) [Example 15, d-2-{[2-(2-(N-pyrid-4-ylmethylamino)ethoxy)ethoxy]methyl}-4-(2,3-dichlorophenyl)-3-ethoxycarbonyl-5-methoxycarbonyl-6-methyl-1,4-dihydropyridine] was tested, and the “reversion factor (RF)” value (DC-3F/AD; compound 1 μM) was 301.4, the “reversion factor (RF)” value (DC-3F/AD; compound 5 μM) was 6,510.3 and the T/C (P 388/VCR; VCR 0, compound 25 mg/kg i.p.) was 109%. For the same molecule, the T/C (P 388/VCR; VCR 0, compound 25 mg/kg i.v.) was 94%, the T/C (P 388/VCR; VCR 0, compound 25 mg/kg p.o.) was 112% and the T/C (P 388/VCR; with VCR […] i.p., compound 25 mg/kg i.p.) was 262%. For the same molecule, the T/C (P 388/VCR; with VCR […] i.p., compound 25 mg/kg i.v.) was 186%, the T/C (P 388/VCR; with VCR […] i.p., compound 25 mg/kg p.o.) was 180% and the “increase” value (KB-A1 [2]; compound 1 μM) was 7.0. For the same molecule, the “increase” value (KB-A1 [2]; compound 5 μM) was 38.6, the “increase” value (KB-A1 [2]; compound […]) was 16.1 and the “Survivors on day 60” value (P 388; [5]) was 0/8. The T/C (P 388; [5]) was 101%, the “Survivors on day 60” value (P 388; [6]) was 3/8 and the T/C (P 388; [6]) was 540%. For the same molecule, the “reversion factor (RF)” value (KB-A1 [1]; compound 1 μM) was 12.1 and the “reversion factor (RF)” value (KB-A1 [1]; compound 5 μM) was 281.9.

With `CCOC(=O)C1=C(COCCOCCNCc2c[nH]c3ccccc23)NC(C)=C(C(=O)OC)C1c1cccc(Cl)c1Cl` (stereo not drawn) [Example 22, d-2-{[2-(2-[N-(indol-3-yl)methylamino]ethoxy)ethoxy]methyl}-4-(2,3-dichlorophenyl)-3-ethoxycarbonyl-5-methoxycarbonyl-6-methyl-1,4-dihydropyridine] the IC50 (calcium channel) was 3300 nM.

With `CCOC(=O)C1=C(COCCOCCNC2c3ccccc3CCc3ccccc32)NC(C)=C(C(=O)OC)C1c1cccc(Cl)c1Cl` (stereo not drawn) [Example 28, d-2-{[2-(2-[N-dibenzo[a,d]cyclohept-5-ylamino)ethoxy)ethoxy]methyl}-4-(2,3-dichlorophenyl)-3-ethoxycarbonyl-5-methoxycarbonyl-6-methyl-1,4-dihydropyridine] the “reversion factor (RF)” value (DC-3F/AD; compound 1 μM) was 1.4, the “reversion factor (RF)” value (DC-3F/AD; compound 5 μM) was 447.3 and the T/C (P 388/VCR; VCR 0, compound 50 mg/kg i.p.) was 107%. For the same molecule, the T/C (P 388/VCR; VCR 0, compound 150 mg/kg p.o.) was 99%, the T/C (P 388/VCR; [3]) was 180% and the T/C (P 388/VCR; [4]) was 207%.

For `COC(=O)C1=C(C)NC(C)=C(C(=O)OC)C1c1ccccc1[N+](=O)[O-]` [NIFEDIPINE, nifedipine, reference compound], the “increase” value (KB-A1 [2]; compound 1 μM) was 0.0, the “increase” value (KB-A1 [2]; compound 5 μM) was 0.0 and the “increase” value (KB-A1 [2]; compound […]) was 0.0.
